{"source": "ChEMBL document CHEMBL4020724", "about": "“Selective HDAC inhibitors with potent oral activity against leukemia and colorectal cancer: Design, structure-activity relationship and anti-tumor activity study” (Eur J Med Chem, 2017)", "key": {"[1]": {"assay": "Inhibition of class 1 HDAC in human HL60 cells using Boc-Ac-Lys-AMC as substrate incubated for 3 hrs followed by substrate addition measured after 3 hrs by fluorescence assay", "format": "cell-based", "conditions": "HL-60, 3 h"}, "U-937 [2]": {"tested_on": "U-937", "assay": "Antitumor activity against human U937 cells xenografted in BALB/c nude mouse assessed as tumor growth inhibition at 50 mg/kg/day administered via oral gavage for 13 days measured every 3 days", "format": "functional", "conditions": "U-937, po, read-out: TGI"}, "U-937 [3]": {"tested_on": "U-937", "assay": "Antitumor activity against human U937 cells xenografted in BALB/c nude mouse assessed as relative tumor increment ratio at 50 mg/kg/day administered via oral gavage for 13 days measured every 3 days", "format": "functional"}, "Mus musculus [4]": {"tested_on": "Mus musculus", "assay": "Toxicity in BALB/c nude mouse xenografted with human U937 cells assessed as body weight at 50 mg/kg/day administered via oral gavage for 13 days (reference value: 25.39 +/- 1.18 g)", "format": "organism-based", "conditions": "in vivo, 312 h"}, "HCT-116 [5]": {"tested_on": "HCT-116", "assay": "Antitumor activity against human HCT116 cells xenografted in BALB/c nude mouse assessed as tumor growth inhibition at 50 mg/kg/day administered via oral gavage for 16 days measured every 3 days", "format": "functional", "conditions": "HCT-116, po, read-out: TGI"}, "HCT-116 [6]": {"tested_on": "HCT-116", "assay": "Antitumor activity against human HCT116 cells xenografted in BALB/c nude mouse assessed as relative tumor increment ratio at 50 mg/kg/day administered via oral gavage for 16 days measured every 3 days", "format": "functional"}, "Mus musculus [7]": {"tested_on": "Mus musculus", "assay": "Toxicity in BALB/c nude mouse xenografted with human HCT116 cells assessed as body weight at 50 mg/kg/day administered via oral gavage for 16 days (reference value: 19.91 +/- 1.26 g)", "format": "organism-based", "conditions": "in vivo, 384 h"}, "HL-60 [8]": {"tested_on": "HL-60", "assay": "Induction of apoptosis in human HL60 cells assessed as decrease in procaspase-3 level at 5 uM after 48 hrs by Western blot analysis", "format": "functional, cell-based"}, "HL-60 [9]": {"tested_on": "HL-60", "assay": "Induction of apoptosis in human HL60 cells assessed as increase in cleaved caspase-3 level at 5 uM after 48 hrs by Western blot analysis", "format": "functional, cell-based"}, "HL-60 [10]": {"tested_on": "HL-60", "assay": "Induction of apoptosis in human HL60 cells assessed as increase in cleaved PARP level at 5 uM after 48 hrs by Western blot analysis", "format": "functional, cell-based"}, "cells": {"assay": "cells", "conditions": "Homo sapiens, ES-2, 48 h", "description": "Antiproliferative activity against human ES2 cells after 48 hrs by MTT assay"}, "Mus musculus [11]": {"tested_on": "Mus musculus", "assay": "Toxicity in BALB/c nude mouse xenografted with human U937 cells assessed as body weight loss at 50 mg/kg/day administered via oral gavage for 13 days", "conditions": "in vivo, 312 h"}}, "note": "Activity calls are given as the source filed them. The rule behind the calls is not given here."}
{"smiles": "Nc1ccccc1NC(=O)c1ccc(CNC(=O)OCc2cccnc2)cc1", "note": "[ENTINOSTAT]", "values": [{"measurement": "IC50", "setting": "[1]", "value": 620, "unit": "nM"}, {"measurement": "inhibition in vivo at 50 mg/kg/day", "setting": "U-937 [2]", "value": 60, "unit": "%"}, {"measurement": "T/C", "setting": "U-937 [3]", "value": 32, "unit": "%"}, {"measurement": "Activity", "setting": "Mus musculus [4]", "value": 19.77, "unit": "g"}, {"measurement": "inhibition in vivo at 50 mg/kg/day", "setting": "HCT-116 [5]", "value": 62, "unit": "%"}, {"measurement": "T/C", "setting": "HCT-116 [6]", "value": 46, "unit": "%"}, {"measurement": "Activity", "setting": "Mus musculus [7]", "value": 18.87, "unit": "g"}, {"measurement": "Activity", "setting": "HL-60 [8]", "value": "Active"}, {"measurement": "Activity", "setting": "HL-60 [9]", "value": "Active"}, {"measurement": "Activity", "setting": "HL-60 [10]", "value": "Active"}, {"measurement": "IC50", "setting": "cells", "value": "> 20000", "unit": "nM"}, {"measurement": "Activity", "setting": "Mus musculus [11]", "value": "Toxic"}]}
